Measured values published in patent US20080171710A1, “The Redox/Fyn/c-Cbl Pathway” (priority 2007, published 2008).
Like-named read-outs stand apart in the source and are kept apart here.

What was measured:
O-2A/OPCs [1] = experiment: In vitro BrdU incorporation assay; format: cell-based, rat; settings: 2 days
Protocol: Cell proliferation was assessed by bromodeoxyuridine (BrdU) incorporation and by using the mouse anti-BrdU mAb IgGl (1:100; Sigma) to label dividing cells. Stained cells on cover slips were rinsed two times in 1×PBS, counterstained with 4′6-diamidino-2-phenylindole (DAPI; Molecular Probes, Eugene, Oreg., United States) and mounted on glass slides with Fluoromount (Molecular Probes). Staining against surface proteins was performed on cultures of living cells or on cells fixed with 2% paraformaldehyde. Staining with intracellular antibodies was performed by permeabilizing cells with ice-cold methanol for 4 min or by using 0.5% Triton for 15 mm on 2% parafomaldhyde-fixed cells. Antibody binding was detected with appropriate fluorescent dye-conjugated secondary antibodies at 10 μg/ml (Southern Biotech, Birmingham, Ala., United States) or Alexa Fluor-coupled antibodies at a concentration of 1 μg/ml (Molecular Probes), applied for 20 min. Anti-BrdU monoclonal antibody was obtained from Sigma.

PDGFRα [2] = experiment: PDGFR ubiquitylation (immunoprecipitation assay); format: cell-based, rat; settings: co-exposure with MeHg
Protocol: (§1) For the co-immunoprecipitation assay, anti-c-Cbl monoclonal antibody (BD PharMingen) or anti-PDGFRα polyclonal antibody (Santa Cruz Biotechnology) was added to the pre-cleared cell lysates (250 μg of total protein), and the mixtures were gently rocked for 2 h at 4° C. A total of 30 μl of protein A/G agarose was then added to the mixture followed by rotating at 4° C. overnight. The protein A/G agarose was then spun down and washed thoroughly three times. The precipitates were resolved on an 8% SDS-PAGE gel and then were subjected to Western blot analysis using an anti-p-Tyr (for c-Cbl phosphorylation assay) or ubiquitin (for PDGFR ubiquitylation assay) antibody (Santa Cruz Biotechnology).

Erk1/2 = format: cell-based, rat
Protocol: Cells were deprived of PDGF-AA for 5 h before re-exposure to PDGF-AA (10 ng/ml) for 1 h for Western blot or 6 h for luciferase assays of pathway activation. Transient transfection was performed using Fugene6 (Roche, Basel, Switzerland ) transfection solution according to the manufacturer's protocol. For the luciferase assay, cells seeded in 12-well plates were transfected with a reporter plasmid SRE-Luc(firefly) or NF-κB-Luc(firefly) (BD-Clontech, Palo Alto, Calif., United States) and an internal control plasmid pRLSV40-LUC. Analyses of luciferase activity were performed according to the protocol of the Dual Luciferase Assay System (Promega, Madison, Wis., United States), which uses an internal control of Renilla luciferase for quantification, and relative light units were measured using a luminometer.
(§2) Anti-phosphorylated Erk monoclonal, anti-Erk monoclonal, anti-TrkC polyclonal anti-Fyn polyclonal, anti-EGFR polyclonal, anti-c-Met polyclonal, anti-phospho-tyrosine monoclonal, and anti-PDGFRα polyclonal antibodies were obtained from Santa Cruz Biotechnology (Santa Cruz, Calif., United States). Anti-c-Cbl monoclonal antibody was obtained from BD PharMingen (San Diego, Calif., United States). Anti-phosphorylated Akt monoclonal and anti-Akt polyclonal antibodies were obtained from Cell Signaling Technology (Beverly, Mass., United States). Anti-phosphorylated PDGPRα polyclonal antibody was obtained from Biosource (Carlsbad, Calif., United States). The cell culture samples were collected and lysed in RAPI buffer, whereas dissected tissue samples were sonicated in RAPI buffer. Samples were resolved on SDS-PAGE gels and transferred to PVDF membranes (PerkinElmer Life Science. Wellesley, Mass., United States), After being blocked in 5% skim milk in PBS containing 0.1% Tween 20, membranes were incubated with a primary antibody, followed by incubation with an HRP-conjugated secondary antibody (Santa Cruz Biotechnology). Membranes were visualized using Western Blotting Luminol Reagent (Santa Cruz Biotechnology). All analyses of signaling pathway components were conducted in the presence of ligand for the receptor pathway under analysis (either PDGF-AA for PDGFRα, NT-3 or TrkC, HGF for c-Met, or EGF for EGFR).

MDA-MB-231 cell = MDA-MB-231 cell division by BrdU incorporation; format: cell-based; settings: 48 hours
Protocol: It has been reported that c-Cbl induced down-regulation of EGFR is disabled in cancer cells (Hirsch DS, Shen. Y, Wu WJ, (2006) Cancer Res. Apr 1;66(7):3523-30). Thus, growth and motility inhibition of breast cancer cells by EGFR degradation is correlated with inaetivation of Cdc42. […] Cells were cultured in phenol red-free growth media and exposed to TMX (0, 1 μM, 10 μM, 20 μM and 50 μM) for 48 hours, with or without 1 mM NAC. In FIG. 22C. MDA-MB-231 cell division was analyzed by BrdU incorporation analysis. […] Percentage of Brdu+ cells from DAPI+ cells was determined in each sample.

PDGFRα [3] = format: cell-based, rat; settings: for effect on MeHg-induced reductions in levels of PDGFRα: together with MeHg; for effect on Pb- and paraquat-induced reductions in levels of PDGFRα: together with Pb (1 μM) or paraquat (5 μM); for levels of PDGFRα: tamoxifen (100 nM; time course 4, 12, 24 hours)
PDGFRα [4] = experiment: PDGFRα phosphorylation (Western blot, anti-PDGFRα(pY742)); format: cell-based, rat
Text: The cells were then collected and lysed for Western blotting. […] Cells were lysed for Western blot analysis using anti-PDGFRα(pY742) antibody. The membranes were de-probed and then re-probed with antibody against total PDGFRα and anti-β-tubulin antibody. […]
as §2

Fyn [5] = target: T1, Fyn (Rattus norvegicus, UniProt Q62844); format: cell-based
T1 construct: 250 μg of total cell lysates were immunoprecipitated with anti-Fyn antibody; endogenous in cells; host or cells: primary rat O-2A/OPCs
Protocol: Fyn kinase activity was quantified using the Universal Tyrosine Kinase Assay Kit (Takara, Madison, Wis., United States). O-2A/OPCs exposed to different treatments were solubilized with an equal volume of the extraction buffer provided with the kit for 15 min, and the resulting lysates were centrifuged at 13,000×g for 15 min at 4° C.; 250 μg of total cell lysates were immunoprecipitated with anti-Fyn antibody (Santa Cruz Biotechnology). Following immunoprecipitation, Fyn immune complexes were washed four times with extraction buffer, and then Fyn kinase activities of each sample were assayed using the kit according to the manufacturer's instructions.

O-2A/OPCs [6] = experiment: Clonal analysis of division and differentiation; format: cell-based, rat; settings: co-exposure with MeHg; 1 mM NAC or PP1
Protocol: O-2A/OPCs purified from P7 rat optic nerve were plated in. poly-L-lysine-coated 25-cm^2 flasks at clonal density with DMBM medium in the presence of 10-ng/ml PDGF as previously described. After 24-h recovery, cells were treated with different toxicants, each for 3 d, until visual inspection and immunostaining was performed. NAC was added 1 h before exposure to other toxicants for NAC pretreatment, and NAC co-exists throughout the culture period. The numbers of O-2A/OPCs and oligodendrocytes in each clone were determined by counting under fluorescent microscope. […] Experiments were performed in triplicate in at least two independent experiments.

c-Cbl [7] = format: cell-based, rat
Protocol: as §1

cancer cells = experiment: Cancer cell viability (MTT assays), FIG. 22; format: cell-based; settings: TMX 1-50 μM, 48 hours
TrkC = format: cell-based, rat; settings: TMX treatment
Text: as §2

EGFR = format: cell-based, rat; settings: TMX exposure
Text: as §2

c-Met = format: cell-based, rat; settings: TMX exposure
Text: as §2

Fyn [8] = experiment: Fyn protein level after RNAi (Western blot); format: cell-based, rat; settings: expression of RNAi construct
Text: (§3) Anti-phosphorylated Erk monoclonal, anti-Erk monoclonal, anti-TrkC polyclonal anti-Fyn polyclonal, anti-EGFR polyclonal, anti-c-Met polyclonal, anti-phospho-tyrosine monoclonal, and anti-PDGFRα polyclonal antibodies were obtained from Santa Cruz Biotechnology (Santa Cruz, Calif., United States). Anti-c-Cbl monoclonal antibody was obtained from BD PharMingen (San Diego, Calif., United States). Anti-phosphorylated Akt monoclonal and anti-Akt polyclonal antibodies were obtained from Cell Signaling Technology (Beverly, Mass., United States). Anti-phosphorylated PDGPRα polyclonal antibody was obtained from Biosource (Carlsbad, Calif., United States). The cell culture samples were collected and lysed in RAPI buffer, whereas dissected tissue samples were sonicated in RAPI buffer. […]
(§4) siRNA target sites were selected by scanning the cDNA sequence for AA dinucleotides via siRNA target finder (Ambion, Austin, Tex., United States). Those 19-nucleotide segments that start with G immediately downstream of AA were recorded and then analyzed by BLAST search to eliminate any sequences with significant similarity to other genes. […]

c-Cbl [9] = experiment: c-Cbl protein level after RNAi (Western blot); format: cell-based, rat; settings: expression of RNAi construct
Text: as §3, §4

[10] = NAC 1 mM, PP1 100 nM or ICI 182,780 200 nM with TMX

T1 sequence (Q62844 whole entry): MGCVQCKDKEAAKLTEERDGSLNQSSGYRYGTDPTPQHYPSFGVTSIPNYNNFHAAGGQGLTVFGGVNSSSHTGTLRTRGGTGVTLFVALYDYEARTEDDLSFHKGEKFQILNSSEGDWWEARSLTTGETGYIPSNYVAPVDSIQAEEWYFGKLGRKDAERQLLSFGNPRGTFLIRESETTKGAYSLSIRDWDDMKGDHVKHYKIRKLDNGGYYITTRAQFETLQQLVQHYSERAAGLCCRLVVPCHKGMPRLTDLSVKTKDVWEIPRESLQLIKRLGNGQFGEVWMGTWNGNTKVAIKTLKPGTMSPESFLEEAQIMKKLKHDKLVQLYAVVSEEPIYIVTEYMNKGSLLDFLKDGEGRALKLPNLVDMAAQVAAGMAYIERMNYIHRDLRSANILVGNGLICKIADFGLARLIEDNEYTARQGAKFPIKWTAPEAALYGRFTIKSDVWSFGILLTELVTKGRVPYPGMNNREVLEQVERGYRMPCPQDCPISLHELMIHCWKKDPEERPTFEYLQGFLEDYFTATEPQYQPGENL

## Cc1ccc(-c2nn(C(C)(C)C)c3ncnc(N)c23)cc1 [PP1]
O-2A/OPCs [1]; with TMX
  effect on TMX effect on cell proliferation: blocked
PDGFRα [2]
  levels of ubiquitylated PDGFRα in MeHg-treated cells: marked reduction
Erk1/2; co-exposure with Aβ(1-42)
  effect on Aβ(1-42) suppression of PDGF-mediated Erk1/2 phosphorylation: blocked
Erk1/2; co-treatment with MeHg
  effect on MeHg-associated suppression of Erk1/2 phosphorylation: blocked
MDA-MB-231 cell; NAC 1 mM or PP1 200 nM with 20 μM tamoxifen
  rescue from tamoxifen effect on cell division: did not result in any rescue effect
PDGFRα [3]; [10]
  effect on TMX-induced reductions in levels of PDGFRα: blocked
PDGFRα [3]; co-exposure with Aβ
  effect on Aβ-induced reduction in PDGFRα levels: blocked
PDGFRα [3]
  effect on MeHg-induced reductions in levels of PDGFRα: blocked
  effect on Pb- and paraquat-induced reductions in levels of PDGFRα: prevented
PDGFRα [4]; co-exposure with MeHg
  effect on MeHg-induced suppression of PDGFRα phosphorylation: protected
Fyn [5]; [10]
  effect on TMX-induced activation of Fyn: blocked
Fyn [5]; added 1 h before MeHg
  effect on MeHg-induced Fyn activation: blocked
Fyn [5]; added 1 h before Pb or paraquat
  effect on Pb- and paraquat-induced Fyn activation: prevented
O-2A/OPCs [6]
  effect on MeHg-induced suppression of cell division at the clonal level: blocked
c-Cbl [7]; [10]
  effect on TMX-induced activation of c-Cbl: blocked
c-Cbl [7]; added 1 h before MeHg
  effect on MeHg-induced c-Cbl phosphorylation: blocked
c-Cbl [7]; co-exposure with Aβ
  effect on Aβ-induced increase in phosphorylated c-Cbl: blocked
Cancer cells
  effect on TMX effects on cancer cells: not blocked

## CC/C(=C(\c1ccccc1)c1ccc(OCCN(C)C)cc1)c1ccccc1 [tamoxifen]
TrkC
  levels of Trk (non-c-Cbl target): no differences
EGFR
  levels of EGFR: decreased
c-Met
  levels of c-Met: decreased
O-2A/OPCs [1]; TMX 10 nM, 100 nM and 1 μM
  O-2A/OPC division: Suppression
MDA-MB-231 cell; 20 μM tamoxifen
  reduction in cell division: ~10%
PDGFRα [3]
  levels of PDGFRα: causes reductions
PDGFRα [3]; listed as TMX
  levels of PDGFRα: parallel reduction over time
PDGFRα [4]; TMX exposure 4, 12, 24 hours
  levels of phosphorylated PDGFRα: parallel reduction over time
c-Cbl [7]; 100 nM tamoxifen
  c-Cbl activation: activates

B1: Fyn-RNAi: Fyn-specific siRNA construct, SEQ ID NO: 1 and 2 (nucleic acid)
chain 1: GTTTGCTCGACTTCTTAAATTCAAGAGATTTAAGAAGTCGAGCAAACTTTTTT
chain 2: AATTAAAAAAGTTTGCTCGACTTCTTAAATCTCTTGAATTTAAGAAGTCGAGCAAACGGCC
modifications: expressed or natural sequence
PDGFRα [3]
  effect on MeHg-induced reductions in levels of PDGFRα: protected
  effect on Pb- and paraquat-induced reductions in levels of PDGFRα: prevented
Fyn [8]
  levels of Fyn protein: caused a reduction
c-Cbl [9]
  levels of c-Cbl protein: had no effects

B2: Fyn-Scr-RNAi: scrambled negative control for Fyn RNAi, SEQ ID NO: 5 and 6 (nucleic acid)
chain 1: CCCGGGTTTCAATATATTTCTCAAGAGAAAATATATTGAAACCCGGGTTTTTT
chain 2: AATTAAAAAACCCGGGTTTCAATATATTTTCTCTTGAGAAATATATTGAAACCCGGGGGCC
PDGFRα [3]
  effect on MeHg-induced reductions in levels of PDGFRα: not
Fyn [8]
  levels of Fyn protein: had no effect

B3: c-Cbl RNAi: c-Cbl siRNA construct, SEQ ID NO: 3 and 4 (nucleic acid)
chain 1: GTGCATCCCATCAGTTCTGTTCAAGAGACAGAACTGATGGGATGCACTTTTTT
chain 2: AATTAAAAAAGTGCATCCCATCAGTTCTGTCTCTTGAACAGAACTGATGGGATGCACGGCC
modifications: expressed or natural sequence
PDGFRα [3]
  effect on MeHg-induced reductions in levels of PDGFRα: protected
  effect on Pb- and paraquat-induced reductions in levels of PDGFRα: prevented
c-Cbl [9]
  levels of c-Cbl protein: caused a reduction
